In brackets after ≈: the same amount, converted by molar mass. Read-outs that look alike come from different tables or passages of the source.
How the values were obtained:
S. aureus ATCC 25923 [1] = test: Antibacterial activity, pre-exposure (planktonic cells and biofilm formation); assay type: cell-based, Staphylococcus aureus; settings: for MIC / inhibition at 5 µM / inhibition at 10 µM / inhibition at 15 µM / inhibition at 25 µM: Staphylococcus aureus, ATCC25923; for inhibition at 5 µM / inhibition at 10 µM / inhibition at 15 µM / inhibition at 25 µM / Average inhibition %, biofilms viability / Average inhibition %, planktonic cells viability: ± SD
Outline: (§1)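 Pre-exposure format: compound and bacterial culture co-incubated 18 h, 37 °C, aerobic, 220 rpm. Planktonic: turbidity (OD) plus resazurin viability, 20 μM final. Biofilm: PBS wash, 20 μM resazurin, then ethanol fixation and crystal violet staining, A595.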

P. aeruginosa ATCC 9027 = test: Antibacterial activity, pre-exposure; assay type: cell-based, Pseudomonas aeruginosa; settings: for Average inhibition %, biofilms viability / Average inhibition %, planktonic cells viability / inhibition at 50 µM / inhibition at 100 µM / inhibition at 150 µM / inhibition at 200 µM: P. aeruginosa ATCC 9027, pre-exposure, ± SD; for inhibition at 50 µM / inhibition at 100 µM / inhibition at 150 µM / inhibition at 200 µM: Pseudomonas aeruginosa, ATCC9027
Outline: as §1

A. baumannii NCTC 13423 = test: Antibacterial activity, pre-exposure; assay type: cell-based, Acinetobacter baumannii; settings: for Average inhibition %, biofilms viability / Average inhibition %, planktonic cells viability / inhibition at 10 µM / inhibition at 15 µM / inhibition at 25 µM / inhibition at 50 µM: A. baumannii NCTC 13423, pre-exposure, ± SD; for inhibition at 10 µM / inhibition at 15 µM / inhibition at 25 µM / inhibition at 50 µM / MIC: Acinetobacter baumannii, NCTC13423
Outline: as §1

S. aureus ATCC 25923 [2] = test: Antibacterial activity, post-exposure on preformed 18-h-old biofilms; assay type: cell-based, Staphylococcus aureus; settings: ± SD; for inhibition at 25 µM / inhibition at 50 µM / inhibition at 100 µM / inhibition at 200 µM: Staphylococcus aureus; for inhibition at 25 µM: ATCC25923, 25 µM; for inhibition at 50 µM: ATCC25923, 50 µM; for inhibition at 100 µM: ATCC25923, 100 µM; for inhibition at 200 µM: ATCC25923, 200 µM
Outline: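 Compounds were applied to preformed 18-h biofilms after medium change and left 24 h. Read-outs: planktonic OD plus resazurin fluorescence (20 μM), biofilm metabolic activity by resazurin 30 min at 37 °C, then biomass by crystal violet absorbance at 595 nm after ethanol fixation.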

[3] = 50 µM, read-out: Average inhibition %, biofilms biomass
[4] = 50 µM, read-out: Average inhibition %, planktonic cells turbidity
[5] = read-out: Average inhibition %, biofilms biomass
[6] = read-out: Average inhibition %, planktonic cells turbidity

## CCCCCCCCCCc1ccc(C(O)CC(N)(CO)CO)cc1 (stereo not shown) [Compound 55, 3-Amino-3-(hydroxymethyl)-1-(4-decylphenyl)butane-1,4-diol]
S. aureus ATCC 25923 [1]; lowest concentration with no visible growth (>90% inhibition of turbidity and viability of planktonic cells), 18 h, read-out: MIC S. aureus ATCC 25923
  MIC: 5 to 15 µM (≈ 1.76 to 5.27 µg/mL)
S. aureus ATCC 25923 [1]; pre-exposure, 5 µM, read-out: Average inhibition %, biofilms biomass
  inhibition at 5 µM: 48.4 ± 41.1%
S. aureus ATCC 25923 [1]; pre-exposure, 5 µM, read-out: Average inhibition %, planktonic cells turbidity
  inhibition at 5 µM: 38.2 ± 53.8%
S. aureus ATCC 25923 [1]; pre-exposure, 10 µM, read-out: Average inhibition %, biofilms biomass
  inhibition at 10 µM: 69.6 ± 23.5%
S. aureus ATCC 25923 [1]; pre-exposure, 10 µM, read-out: Average inhibition %, planktonic cells turbidity
  inhibition at 10 µM: 43.5 ± 48.8%
S. aureus ATCC 25923 [1]; pre-exposure, 15 µM, read-out: Average inhibition %, biofilms biomass
  inhibition at 15 µM: 93.4 ± 1.1%
S. aureus ATCC 25923 [1]; pre-exposure, 15 µM, read-out: Average inhibition %, planktonic cells turbidity
  inhibition at 15 µM: 99 ± 0.6%
S. aureus ATCC 25923 [1]; pre-exposure, 25 µM, read-out: Average inhibition %, biofilms biomass
  inhibition at 25 µM: 94.2 ± 1.1%
S. aureus ATCC 25923 [1]; pre-exposure, 25 µM, read-out: Average inhibition %, planktonic cells turbidity
  inhibition at 25 µM: 98.8 ± 0.6%
S. aureus ATCC 25923 [1]; pre-exposure, lowest value among replicates, read-out: MIC S. aureus ATCC 25923, for some replicates
  MIC: 5 µM (≈ 1.76 µg/mL)
S. aureus ATCC 25923 [1]; read-out: MIC (S. aureus)
  MIC: 5 to 15 µM (≈ 1.76 to 5.27 µg/mL)
S. aureus ATCC 25923 [1]; pre-exposure, 5 µM
  Average inhibition %, biofilms viability: 50.6 ± 42%
  Average inhibition %, planktonic cells viability: 33.2 ± 57.6%
S. aureus ATCC 25923 [1]; pre-exposure, 10 µM
  Average inhibition %, biofilms viability: 66.7 ± 28.3%
  Average inhibition %, planktonic cells viability: 43.1 ± 49.4%
S. aureus ATCC 25923 [1]; pre-exposure, 15 µM
  Average inhibition %, biofilms viability: 99.2 ± 0.2%
  Average inhibition %, planktonic cells viability: 99.8 ± 0.1%
S. aureus ATCC 25923 [1]; pre-exposure, 25 µM
  Average inhibition %, biofilms viability: 99.6 ± 0.2%
  Average inhibition %, planktonic cells viability: 99.8 ± 0.2%
P. aeruginosa ATCC 9027; 50 µM
  Average inhibition %, biofilms viability: 13.6 ± 11.8%
  Average inhibition %, planktonic cells viability: 31.2 ± 8.9%
P. aeruginosa ATCC 9027; 100 µM
  Average inhibition %, biofilms viability: 9.4 ± 9.2%
  Average inhibition %, planktonic cells viability: 30.3 ± 25.5%
P. aeruginosa ATCC 9027; 150 µM
  Average inhibition %, biofilms viability: 3.3 ± 4.6%
  Average inhibition %, planktonic cells viability: 40.3 ± 27.1%
P. aeruginosa ATCC 9027; 200 µM
  Average inhibition %, biofilms viability: 5 ± 5.6%
  Average inhibition %, planktonic cells viability: 27.1 ± 15.6%
P. aeruginosa ATCC 9027; [3]
  inhibition at 50 µM: 6.4 ± 8.2%
P. aeruginosa ATCC 9027; [4]
  inhibition at 50 µM: 45.1 ± 5.7%
P. aeruginosa ATCC 9027; 100 µM, read-out: Average inhibition %, biofilms biomass
  inhibition at 100 µM: 10.8 ± 8.8%
P. aeruginosa ATCC 9027; 100 µM, read-out: Average inhibition %, planktonic cells turbidity
  inhibition at 100 µM: 49.4 ± 8.3%
P. aeruginosa ATCC 9027; 150 µM, read-out: Average inhibition %, biofilms biomass
  inhibition at 150 µM: 12 ± 10.4%
P. aeruginosa ATCC 9027; 150 µM, read-out: Average inhibition %, planktonic cells turbidity
  inhibition at 150 µM: 54.3 ± 13.8%
P. aeruginosa ATCC 9027; 200 µM, read-out: Average inhibition %, biofilms biomass
  inhibition at 200 µM: 3.1 ± 2.7%
P. aeruginosa ATCC 9027; 200 µM, read-out: Average inhibition %, planktonic cells turbidity
  inhibition at 200 µM: 59.4 ± 7.3%
P. aeruginosa ATCC 9027; pre-exposure, Inactive = no activity up to 200 μM, > = some inhibition but no MIC reached
  MIC P. aeruginosa ATCC 9027: Inactive
A. baumannii NCTC 13423; 10 µM
  Average inhibition %, biofilms viability: 1.8 ± 3.2%
  Average inhibition %, planktonic cells viability: 3.8 ± 3.3%
A. baumannii NCTC 13423; 15 µM
  Average inhibition %, biofilms viability: 92.7 ± 9.4%
  Average inhibition %, planktonic cells viability: 98.1 ± 2.3%
A. baumannii NCTC 13423; 25 µM
  Average inhibition %, biofilms viability: 100.6 ± 0.9%
  Average inhibition %, planktonic cells viability: 99.7 ± 0%
A. baumannii NCTC 13423; 50 µM
  Average inhibition %, biofilms viability: 101 ± 1%
  Average inhibition %, planktonic cells viability: 99.5 ± 0%
A. baumannii NCTC 13423; 10 µM, read-out: Average inhibition %, biofilms biomass
  inhibition at 10 µM: 0.2 ± 0.4%
A. baumannii NCTC 13423; 10 µM, read-out: Average inhibition %, planktonic cells turbidity
  inhibition at 10 µM: 0.8 ± 1.4%
A. baumannii NCTC 13423; 15 µM, read-out: Average inhibition %, biofilms biomass
  inhibition at 15 µM: 74.2 ± 18.9%
A. baumannii NCTC 13423; 15 µM, read-out: Average inhibition %, planktonic cells turbidity
  inhibition at 15 µM: 97.2 ± 2.5%
A. baumannii NCTC 13423; 25 µM, read-out: Average inhibition %, biofilms biomass
  inhibition at 25 µM: 88.5 ± 6.6%
A. baumannii NCTC 13423; 25 µM, read-out: Average inhibition %, planktonic cells turbidity
  inhibition at 25 µM: 99.5%
A. baumannii NCTC 13423; [3]
  inhibition at 50 µM: 87.4 ± 4.1%
A. baumannii NCTC 13423; [4]
  inhibition at 50 µM: 99.1%
A. baumannii NCTC 13423; pre-exposure, Inactive = no activity up to 50 μM, > = some inhibition but no MIC reached, read-out: MIC A. baumannii NCTC 13423
  MIC: 15 µM (≈ 5.27 µg/mL)
A. baumannii NCTC 13423; supplementary molecular formula strings sheet, read-out: MIC (A. baumannii)
  MIC: 15 µM (≈ 5.27 µg/mL)
S. aureus ATCC 25923 [2]; 25 µM
  Average inhibition %, biofilms viability: 17.9 ± 13.2%
  Average inhibition %, planktonic cells viability: 0 ± 0%
S. aureus ATCC 25923 [2]; 50 µM
  Average inhibition %, biofilms viability: 36.8 ± 8.3%
  Average inhibition %, planktonic cells viability: 0 ± 0%
S. aureus ATCC 25923 [2]; 100 µM
  Average inhibition %, biofilms viability: 44.4 ± 9.7%
  Average inhibition %, planktonic cells viability: 70 ± 12.5%
S. aureus ATCC 25923 [2]; 200 µM
  Average inhibition %, biofilms viability: 94 ± 8.6%
  Average inhibition %, planktonic cells viability: 100.4 ± 0%
S. aureus ATCC 25923 [2]; [5]
  inhibition at 25 µM: 51.6 ± 18.4%
  inhibition at 50 µM: 63.1 ± 9%
  inhibition at 100 µM: 61.4 ± 3.4%
  inhibition at 200 µM: 80.8 ± 4.2%
S. aureus ATCC 25923 [2]; [6]
  inhibition at 25 µM: 15.7 ± 13.7%
  inhibition at 50 µM: 9.8 ± 13.9%
  inhibition at 100 µM: 67.6 ± 10.3%
  inhibition at 200 µM: 84.2 ± 3.1%

Source: PMC8296573, “Synthesis and Biological Evaluation of Fingolimod Derivatives as Antibacterial Agents” (ACS Omega, 2021)
